The results in this text go back to patent publication US20110104177A1, “HISTONE DEACETYLASE INHIBITORS, COMBINATION THERAPIES AND METHODS OF USE” (THE JOHNS HOPKINS UNIVERSITY, priority 2006, published 2011).

Series [1] concerns the target T1, SIRT1 (Homo sapiens, UniProt Q96EB6).
T1 sequence (Q96EB6 1-747): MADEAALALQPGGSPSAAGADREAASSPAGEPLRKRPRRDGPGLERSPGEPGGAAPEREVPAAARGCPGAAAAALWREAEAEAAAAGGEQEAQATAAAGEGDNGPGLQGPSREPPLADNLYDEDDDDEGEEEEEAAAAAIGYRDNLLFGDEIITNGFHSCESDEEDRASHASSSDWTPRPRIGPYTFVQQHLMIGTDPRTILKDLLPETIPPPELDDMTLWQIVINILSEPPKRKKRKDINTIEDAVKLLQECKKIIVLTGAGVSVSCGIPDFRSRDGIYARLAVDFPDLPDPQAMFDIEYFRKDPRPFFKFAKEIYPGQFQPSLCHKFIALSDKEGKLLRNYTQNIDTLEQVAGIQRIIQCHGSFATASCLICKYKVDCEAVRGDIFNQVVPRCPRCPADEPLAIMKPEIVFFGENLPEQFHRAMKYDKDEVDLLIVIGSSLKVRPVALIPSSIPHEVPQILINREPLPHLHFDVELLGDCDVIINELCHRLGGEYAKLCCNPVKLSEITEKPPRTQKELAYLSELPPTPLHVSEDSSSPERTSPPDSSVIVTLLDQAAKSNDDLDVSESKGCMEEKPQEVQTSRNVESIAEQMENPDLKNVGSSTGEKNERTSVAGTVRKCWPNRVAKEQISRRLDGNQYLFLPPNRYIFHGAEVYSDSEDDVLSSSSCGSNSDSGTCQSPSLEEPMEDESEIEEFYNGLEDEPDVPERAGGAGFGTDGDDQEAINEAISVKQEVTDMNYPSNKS
The experiment in a line: Activity against the SIRT1 enzyme / SIRT1 deacetylase activity. It is filed as biochemical.

The subject of series [2] is SFRP1, SFRP2, MLH1, CRBP1, E-cadherin genes in RKO cells. Kind of series: RT-PCR re-expression of silenced tumor suppressor genes in RKO cells. The series is classed as cell-based, human. The protocol: To inhibit any residual SIRT1 protein, remaining RNAi-expressing cells were treated with 700 μM SPT and control samples were treated with DMSO for 24 hours. […] RKO cells were also treated with 0.5 μM Aza (24 hours), and samples were analyzed as described in FIG. 1A; RT-PCR was performed with intron-spanning primers specific for the two genes. GAPDH was also analyzed as a control. […] Control samples in which no reverse transcriptase was added were analyzed separately, and all were negative for amplification of the indicated genes. […] The level of TSG re-expression induced by Aza treatment or SIRT1 inhibition as described in FIG. 4(A) was compared to levels of expression in HCT116 cells in which the TSGs are basally expressed.
(§1) Cell culture and retroviral infection. MDA-MB-231, MCF7, HCT116, SW480 RKO, and Phoenix cells (ATCC, Rockville, Md., United States) were cultured in Dulbecco's modified Eagle's medium supplemented with 10% fetal bovine serum and 1% penicillin/streptomycin (Invitrogen, Carlsbad, Calif., United States). Retroviral infection was performed using either single or multiple rounds of infection. Briefly, Phoenix cells were transfected with either pBabe, pBabe-SIRT1H363Y, pSUPERretro, pSUPERretro-SIRT1-RNAi-1-3 (NM_012238 positions 410, 589, and 1091; Oligo Engine, Seattle, Wash., United States) using Lipofectamine 2000 (Invitrogen). After 48 h of transfection, the medium containing retrovirus was collected, filtered, and supplemented with Polybrene prior to infection of target cells (MDA-MB-231, MCF7, or HCT116). Infected cells were either harvested 24-48 hours later or subjected to selection with 2-3 μg/ml puromycin for a week prior to harvest and analysis.
(§2) RNA and protein preparation and analysis. Total RNA was extracted (Invitrogen) according to the manufacturer's instructions and subjected to reverse transcription followed by both quantitative real-time and semi-quantitative polymerase chain reaction. For quantitative real-time analyses, the QuantiTect SYBR Green PCR kit (Qiagen, Valencia, Calif., United States) was used and the amplification conditions consisted of an initial 10-minutes denaturation step at 95° C., followed by 40 cycles of denaturation at 95° C. for 15 s and annealing and extension for 30 seconds and 60 seconds, respectively. A BioRad iCycler was used (BioRad, Hercules, Calif., United States), and for quantitation the comparative cycle threshold (Ct) method was used, normalizing the Ct values for the indicated gene to the Ct values of GAPDH relative to a control sample. For conventional PCR, at least two independent sets of intron-spanning primers were used for the analysis of multiple genes, such as CRBP1, (NM_002899), E-cadherin, (L34545), SFRP1, (BC036503), SFRP2, (BC008666), and Gata-4 (L34357). For Western blots, cells stably expressing RNAi constructs were harvested in 50 mM Tris-HCl, 1% NP-40, 0.25% sodium deoxycholate, 150 mM NaCl, 50 mM sodium fluoride, 1 mM dithiothreitol, 1 mM AEBSF, 1× Complete protease inhibitor cocktail (Roche, Basel, Switzerland). Protein concentrations were measured by BCA (Pierce Biotechnology, Rockford, Ill., United States). […] On the same blot, β-actin (Sigma, St. Louis, Mo., United States) was probed to ensure equal loading.
(§3) The results from experiments performed in RKO cells are shown in FIG. 7 which presents RT-PCR results for SFRP1. […] The expression seemed stronger than for 300 μM splitomycin (Spt) or 20 mM nicotinamide (Nia) when these latter two drugs were used alone or in combination, but not as strong as the expression induced by 1 μM of the DNA demethylating agent, deoxy-aza-cytidine (Aza). […] Experiments were carried out as essentially described above.

In series [3] the test system is SFRP1 and 2 genes in human breast cancer cells (line H231). The experiment in a line: Re-activation of SFRP1 and 2 genes in breast cancer cells (line H231). The series is classed as cell-based. The protocol: This has been accomplished for the SFRP1 and 2 genes in human breast cancer cells (line H231) and for SFRP1 in human colon cancer cells (line RKO).
as §3

Series [4] has as its system SIRT1. The experiment in a line: Western blot of SIRT1 protein after retroviral shRNA infection. The series is classed as cell-based, human. As for the experimental part:
as §1, §2

Series [5] concerns SFRP1 and SFRP2 genes in MCF7 cells. Kind of series: RT-PCR re-expression of silenced tumor suppressor genes in MCF7 cells. The series is classed as cell-based, human. The settings on record: retroviral infection, RT-PCR. As for the experimental part:
as §1, §2

Series [6] relates to SFRP1, SFRP2, E-cadherin, CRBP1 genes in MDA-MB-231 cells. The experiment in a line: RT-PCR re-expression of silenced tumor suppressor genes in MDA-MB-231 cells. It is filed as cell-based, human. The settings on record: MDA-MB-231 cells; shRNA retroviral infection; RT-PCR. The protocol:
The panels of FIG. 2 are as follows. […] MDA-MB-231 cells were treated with 15 mM NIA or 300 μM SPT for 21 hours, RNA was isolated, and RT-PCR was performed with intron-spanning primers specific for the indicated genes. Control samples in which no reverse transcriptase was added were analyzed separately, and all were negative for amplification of the indicated genes. […] MDA-MB-231 cells were treated with either 50 nM Aza (+), 100 μM SPT (+) or with both Aza and SPT (++), and 34 hours later, RT-PCR was performed for the indicated genes as described in FIG. 2(A). […] MDA-MB-231 cells were treated with either 0, 50, 100, or 120 μM SPT alone for 34 hours, or the treatment was followed by treatment with 300 nM TSA for 3 hours prior to RNA isolation and RT-PCR analysis. […] MDA-MB-231 cells were infected with low titers of virus for shRNA specific for SIRT1. Aza (100 nM) was added 24 hours prior to RNA isolation, and RT-PCR analysis was performed for the genes SFRP 1, SFRP2, and GAPDH as described in FIG. 2(A). […] As shown in the left panel, MDA-MB-231 cells were infected with a control (vec) or mutant SIRT1 virus (HY), and RT-PCR was performed as described in FIG. 2(A). MDA-MB-231 cells were infected with low titers of pBabe or pBabe-SIRT1H363Y retrovirus and subsequently treated with 100 nM Aza for 24 hours or with 300 nM TSA for 3 hours prior to harvest, and RT-PCR was performed.
as §1, §2

In series [7] the test system is E-cadherin and MLH1 protein in MDA-MB-231 and RKO cells. Kind of series: Western blot of tumor suppressor protein re-expression. Conditions: puromycin selection 3 days. The series is classed as cell-based, human. The protocol:
The panels in FIG. 1 are as follows. […] Retroviral expression vectors encoding SIRT1 cDNA that produce short hairpin loop RNA targeting either distinct regions of SIRT1 mRNA (RNAi-1, -2, or -3) or a control (ctrl) were used to infect MCF7. Western blot analysis for SIRT1 and β-actin was performed 48 hours after two rounds of infection. […] RNA was isolated from parallel samples analyzed in FIG. 1(A), and RT-PCR was performed with intron-spanning primers specific for the genes SFRP1 and SFRP2. GAPDH was also analyzed as a control. […] Control samples in which no reverse transcriptase was added were analyzed separately, and all were negative for amplification of the indicated genes. […]
RNA and protein preparation and analysis. Total RNA was extracted (Invitrogen) according to the manufacturer's instructions and subjected to reverse transcription followed by both quantitative real-time and semi-quantitative polymerase chain reaction. For quantitative real-time analyses, the QuantiTect SYBR Green PCR kit (Qiagen, Valencia, Calif., United States) was used and the amplification conditions consisted of an initial 10-minutes denaturation step at 95° C., followed by 40 cycles of denaturation at 95° C. for 15 s and annealing and extension for 30 seconds and 60 seconds, respectively. […] Protein concentrations were measured by BCA (Pierce Biotechnology, Rockford, Ill., United States). […]

Series [8] has as its system SFRP1, SFRP2, GATA4 promoter methylation in MDA-MB-231 cells. The experiment in a line: Promoter DNA methylation by bisulfite sequencing and MSP. The series is classed as cell-based, human. Conditions: MDA-MB-231 cells stably infected. An excerpt: The panels of FIG. 3 are as follows. […] Parallel samples analyzed in FIG. 1D were subjected to bisulfite sequencing of the SFRP1 promoter from MDA-MB-231 cells stably infected with control vector or RNAi-2 or RNAi-3 retrovirus. Open circles indicate unmethylated cytosines, and closed circles indicate methylated cytosines. Numbers at the bottom show the position of cytosines relative to the transcription start site, which is at position 0, and those with a minus sign (−) are upstream from this start site. The region sequenced encompasses the CpG island in which methylation status correlates with gene expression status. […] From left to right: (−) PCR Ctrl indicates H2O only; (−) BS ctrl indicates bisulfite-treated H20; (+) M ctrl indicates the cell line in which SFRP1 is partially methylated and SFRP2 and GATA4 are fully methylated; and (+) U ctrl indicates the Tera-2 cell line in which each gene is unmethylated. All remaining lanes are for MDA-MB-231. From left to right: Aza indicates 1 μM Aza (24 hours) treatment; Ctrl indicates empty vector infection; RNAi-2 indicates shRNA-2 infection alone; RNAi-3 indicates shRNA-3 infection alone; Aza indicates 1 μM Aza (24 hours treatment of control cells; Ctrl indicates empty vector infection+vehicle; RNAi-2 indicates shRNA-2 infection+5 mM NIA treatment; and RNAi-3 indicates shRNA-3 infection+5 mM NIA treatment.
MSP and bisulfite sequencing. […]

With `NC(=O)[C@H]1CCCc2c1[nH]c1ccc(Cl)cc21` [(S)-6-chloro-2,3,4,9-tetrahydro-1H-carbazole-1-carboxamide], the “inhibition of SIRT1 deactylase activity” value in series [1] is “potent inhibition”. In series [2] (RKO cells, RT-PCR), the “SFRP1 expression compared with 1 μM deoxy-aza-cytidine (Aza)” value is “not as strong” and the “SFRP1 expression compared with 300 μM splitomycin or 20 mM nicotinamide, alone or in combination” value is “stronger”. Further, the “SFRP1 RT-PCR specific band” value in series [2] (RKO cells, doses of 20 and 50 μM, 24 or 48 hours) was “produce the band at both time points”. Further, the “transcriptional re-activation of SFRP1 and 2 genes” value in series [3] is recorded as “the same effects have been achieved”.
As to “RNAi-3: shRNA targeting SIRT1 mRNA, sequence CATAGACACGCTGGAACAG, NM_012238 position 1091”, the “reduction of SIRT1 protein (knockdown)” value in series [4] (MCF7 cells, Western blot 48 h after two rounds of infection) is reported as “greatest knockdown”; in series [4] (MDA-MB-231 cells) it was “very effective in reducing protein levels”; in series [4] (RKO cells) it was “SIRT1 protein reduction”. The “gene re-expression of SFRP1 and SFRP2” value in series [5] is “led to gene re-expression”. The “gene re-expression of SFRP1, SFRP2 and E-cadherin” value in series [6] is listed as “led to gene re-expression”. Further, in series [2] (RKO cells stably expressing shRNA, treated with 700 μM SPT 24 hours, RT-PCR), the “gene re-expression of CRB1 and E-cadherin” value is reported as “leads to gene re-expression”. For the same molecule, the “gene re-expression of SFRP1, SFRP2 and MLH1” value in series [2] (RKO cells, shRNA retroviral infection, RT-PCR) is “leads to gene re-expression of SFRP1, SFRP2, and MLH1”. For the same molecule, the “protein re-expression (E-cadherin, MLH1) by Western blot” value in series [7] is “protein re-expression that corresponded with the gene reactivation”. In series [8], the “SFRP1 promoter methylation profile (bisulfite sequencing)” value is “without changes in the methylation profile”.
